Reference: patent US20090123979A1, “Methods of reducing the inhibitory effect of a tannin on the enzymatic hydrolysis of cellulosic material” (Novozymes, Inc., priority 2007, published 2009)

B1: Aspergillus oryzae tannase: Aspergillus oryzae tannase (Novozymes A/S, Bagsværd, Denmark) (protein, listed as Aspergillus oryzae)
chain: MPSLRRLLPFLAAGSAALASQDTFQGKCTGFADKINLPNVRVNFVNYVPGGTNLSLPDNPTSCGTTSQVVSEDVCRIAMAVATSNSSEITLEAWLPQNYTGRFLSTGNGGLSGCIQYYDLAYTSGLGFATVGANSGHNGTSGEPFYHHPEVLEDFVHRSVHTGVVVGKQLTKLFYEEGFKKSYYLGCSTGGRQGFKSVQKYPNDFDGVVAGAPAFNMINLMSWSAHFYSITGPVGSDTYLSPDLWNITHKEILRQCDGIDGAEDGIIEDPSLCSPVLEAIICKPGQNTTECLTGKQAHTVREIFSPLYGVNGTLLYPRMQPGSEVMASSIMYNGQPFQYSADWYRYVVYENPNWDATKFSVRDAAVALKQNPFNLQTWDADISSFRKAGGKVLTYHGLMDQLISSENSKLYYARVAETMNVPPEELDEFYRFFQISGMAHCSGGDGAYGIGNQLVTYNDANPENNVLMAMVQWVEKGIAPETIRGAKFTNGTGSAVEYTRKHCRYPRRNVYKGPGNYTDENAWQCV

Assays:
[1] = system: T1, Cellulolytic Enzyme Composition #1; assay: PCS hydrolysis by Cellulolytic Enzyme Composition #1 with added compounds; type: biochemical, Trichoderma reesei; conditions: for effect on hydrolysis of PCS by Cellulolytic Enzyme Composition #1: 1 mM each compound, 43.4 g PCS and 0.25 g enzyme per liter, pH 5.0, 50° C.; for loss in initial rate of PCS hydrolysis / loss in the extent of PCS hydrolysis at day 4: 50 g PCS, 0.25 g enzyme per liter, methyl gallate and ellagic acid 10 mM, tannic acid 1 mM
T1 construct: other: PASC hydrolysis; mean ± SD; 0.01 g enzyme; Dixon plot linear regression intercept (1/Rate); other: AVICEL; rate from hydrolysis difference (%) at 0 and 6 hours; rate from hydrolysis difference; fused on or other part: The A. oryzae beta-glucosidase is the mature chain secreted behind the Humicola insolens endoglucanase V signal peptide, which is cleaved off
Description: (§1) Corn stover was pretreated at the U.S. Department of Energy National Renewable Energy Laboratory (NREL), […], Colo., USA, using dilute sulfuric acid. The following conditions were used for the pretreatment: 1.4 wt % sulfuric acid at 195° C. for 4.5 minutes. According to limit digestion with excess cellulase enzymes, the water-insoluble solids in the pretreated corn stover (PCS) contained 59.5% cellulose. Prior to use, the PCS was washed with a large volume of deionized water until soluble acid and sugars were removed. The dry weight of the water-washed PCS was 19.16%.
(§2) The effect of a mixture of tannic acid, ellagic acid, epicatechin, and six lignin constituent compounds (4-hydroxyl-2-methylbenzoic acid, vanillin, coniferyl alcohol, coniferyl aldehyde, ferulic acid, and syringaldehyde) was determined on the hydrolysis of PCS by Cellulolytic Enzyme Composition #1 or Cellulolytic Enzyme Composition #2. […] Cellulolytic Enzyme Composition #1 or Cellulolytic Enzyme Composition #2 was added at 0.25 g per liter. Reactions without the addition of the compounds served as controls. The capped tubes were incubated at 50° C. in an INNOVA® 4080 incubator shaker (New Brunswick Scientific Co., Inc., Edison, N.J., USA) at 150 rpm.
(§3) Aliquots of the suspensions, sampled over time, were filtered by centrifugation using a 0.45 μm MULTISCREEN® HV membrane (Millipore, Billerica, Mass., USA) at 2000 rpm for 15 minutes using a SORVALL® RT7 centrifuge (Thermo Fisher Scientific, Waltham, Mass., USA). When not used immediately, the filtered aliquots were frozen at −20° C. Sugar concentrations of the samples diluted in 0.005 M H2SO4 were measured after elution by 0.005 M H2SO4 at a flow rate of 0.4 ml/minute from a 4.6×250 mm AMINEX® HPX-87H column (Bio-Rad, Hercules, Calif., USA) at 65° C. with quantitation by integration of glucose and cellobiose using refractive index detection (CHEMSTATION®, AGILENT® 1100 HPLC, Agilent Technologies, Santa Clara, Calif., USA) calibrated with standards of glucose and cellobiose. The resultant equivalents were used to calculate the percentage of cellulose conversion for each reaction.
(§4) The degree of cellulose conversion to glucose plus cellobiose sugars (conversion, %) was calculated using the following equation:
(§5) Conversion(%)=(glucose+cellobiose×1.053)(mg/ml)×100×162/cellulose(mg/ml)×180)=(glucose+cellobiose×1.053)(mg/ml)×100/(cellulose(mg/ml)×1.111)
(§6) In this equation the factor 1.111 reflects the weight gain in converting cellulose to glucose, and the factor 1.053 reflects the weight gain in converting cellobiose to glucose. Cellulose in PCS was determined by a limit digest of PCS to release glucose and cellobiose.
(§7) Example 30 was repeated except that each compound was tested separately. […] Reactions without the addition of each compound served as controls.
(§8) The effect of OPC or flavonol on the hydrolysis of PCS by Cellulolytic Enzyme Composition #1 or Cellulolytic Enzyme Composition #2 was determined according to the procedure described in Example 30. OPC and flavonol were present at a concentration of 1 mM. Reactions without the addition of the compounds served as controls.
Methyl gallate and ellagic acid were compared at 10 mM to 1 mM tannic acid in the hydrolysis of PCS by Cellulolytic Enzyme Composition #1.

[2] = system: T2, Cellulolytic Enzyme Composition #2; assay: PCS hydrolysis by Cellulolytic Enzyme Composition #2 with added compounds; type: biochemical, Trichoderma reesei; conditions: 1 mM each compound; 43.4 g PCS and 0.25 g enzyme per liter, pH 5.0, 50° C.
T2 construct: Dixon plot linear regression intercept (1/Rate); other: PCS; rate from hydrolysis difference (%) at 0 and 5 hours; rate from hydrolysis difference (%); Ki (x-intercept of Dixon plot); other: PCS hydrolysis, Cellulolytic Enzyme Composition #2; OPC flavonol-equivalent; Ki expressed as galloyl constituents; oth; fused on or other part: In one component the Humicola insolens endoglucanase V (CEL45A) core is fused in front of the A. oryzae beta-glucosidase
Description: as §1, §2, §3, §4, §5, §6, §7, §8
(§9) The effective inhibitory concentration range for tannic acid and OPC was also determined by the “mini-scale” hydrolysis described in Example 30 with Cellulolytic Enzyme Composition #2. The concentration of tannic acid ranged from 0.1 mM to 1 mM, while the concentration of OPC ranged from 0.1 mM to 10 mM. Reactions without the addition of the tannic compounds served as controls.
(§10) However, prior to the addition of Cellulolytic Enzyme Composition #2, the mixture of PCS or OPC and tannic acid was treated with Aspergillus oryzae tannase (Novozymes A/S, Bagsværd, Denmark) at 10% of the final protein level for 30 minutes. Reactions without addition of the tannic acid, OPC, or tannase served as controls.

[3] = system: Cellulolytic Enzyme Composition #2; assay: as above; type: biochemical, Trichoderma reesei; conditions: tannase alone, in the absence of tannic acid or OPC
Description: as §1, §2, §3, §4, §5, §6, §7, §8, §9, §10

[4] = Tannase reduction of tannic acid inhibition of PCS hydrolysis by Cellulolytic Enzyme Composition #2; type: biochemical; conditions: 1 mM tannic acid; 43 g PCS per liter; tannase at 10% of final protein level for 30 minutes
Description: (§11) Tannase was evaluated for its ability to reduce the inhibitory effect of tannic acid on OPC on PCS hydrolysis by Cellulolytic Enzyme Composition #2.
as §10

[5] = Tannase reduction of OPC inhibition of PCS hydrolysis by Cellulolytic Enzyme Composition #2; type: biochemical; conditions: 10 mM OPC; 43 g PCS per liter; tannase at 10% of final protein level for 30 minutes
Description: as §11, §10

[6] = Tannase reduction of tannic acid inhibition of PCS hydrolysis by Cellulolytic Enzyme Composition #1; type: biochemical; conditions: 1 mM tannic acid
Description: To reduce the inhibition, tannase was added at 12.5, 25, and 50 mg per liter (or 0.21, 0.42, and 0.85 μM).

| Molecule | effect on hydrolysis of PCS by Cellulolytic Enzyme Composition #1 [1] | loss in initial rate of PCS hydrolysis [1] [%] | loss in the extent of PCS hydrolysis at day 4 [1] [%] | also measured |
| --- | --- | --- | --- | --- |
| O=c1oc2c(O)c(O)cc3c(=O)oc4c(O)c(O)cc1c4c23 [ellagic acid] | but not its constituent ellagic acid (FIG. 17C), significantly inhibited | ~30 | ~40 | – |
| O=c1c(O)c(-c2ccccc2)oc2ccccc12 [flavonol] | not its constituent flavonol, was inhibitory | – | – | effect on hydrolysis of PCS by Cellulolytic Enzyme Composition #2 [2]: not inhibitory |
| COC(=O)c1cc(O)c(O)c(O)c1 [methyl gallate] | – | ~10 | ~10 | – |
| B1 | – | – | – | increase in hydrolysis extent of PCS by Cellulolytic Enzyme Composition #2 [3]: approximately 2%; effect of tannase pretreatment on the inhibitory effect of tannic acid on Cellulolytic Enzyme Composition #2 [4]: significantly reduced; effect of tannase pretreatment on the inhibitory effect of OPC on Cellulolytic Enzyme Composition #2 [5]: significantly reduced; reduction of tannic acid inhibition ([6]; tannase at approximately 12 mg per liter): approximately 50%; reduction of tannic acid inhibition ([6]; tannase at approximately 25 mg per liter): ~100% |
